# Columns and labels:
# Assay type in all cases: cell-based
# [1] = system: BG1 (KRAS variant/BRCA wild-type cell line); experiment: CellTiter-Blue chemosensitivity / cell viability assay, BG1; details: KRAS-variant line BG1 vs non-variant CAOV3
# Experimental: (§1) The activity of drugs alone or in combination was determined by a high-through-put CellTiter-Blue cell viability assay. For these assays, 1.2×10^3 cells were plated in each well of 384-well plates using a Precision XS liquid handling station (Bio-Tek Instruments Inc., Winooski, Vt., USA) and allowed to attach overnight with incubation at 37° C., 5% CO2. Using the liquid handling station, all drugs were serially diluted 2:3 or 1:2 in media, and 5 μl of these dilutions were added to appropriate wells at indicated times. Four replicate wells were used for each drug concentration and an additional four control wells received a diluent control without drug. At the end of the incubation period with drugs, 5 μl CellTiter-Blue reagent (Promega Corp., Madison, Wis., USA) was added to each well. Cell viability was assessed by the ability of the remaining viable cells to bioreduce resazurin to resorufin. The fluorescence of resorufin (579 nm Ex/584 nm Em) was measured using a Synergy 4 microplate reader (Bio-Tek Instruments Inc.). […] IC50s were determined using a sigmoidal equilibrium model regression using XLfit version 5.2 (ID Business Solutions Ltd). The IC50 was defined as the concentration Of drug required for a 50% reduction in growth/viability. All experiments were carried out a minimum of three times.
# For example, a cell line that is KRAS variant positive/BRCA wild-type (BG1), a non-variant/BRCA wild-type cell line (CAOV3) and a cell line KRAS-variant positive/BRCA1 mutant (IGR-OV1) were tested.
# [2] = system: IGR-OV1 (KRAS-variant/BRCA1 mutant cell line); experiment: CellTiter-Blue chemosensitivity / cell viability assay, IGR-OV1; details: KRAS variant and deleterious BRCA1 mutation line vs CAOV3
# Experimental: as §1, with “three times. […]” for “three times.”
# [3] = system: wild-type 3′UTR reporter (KRAS); experiment: Luciferase reporter expression after irinotecan exposure, wild-type 3′UTR reporter
# From the text: (§2) The disclosure provides a method of predicting the response of a cancer cell to the combination of a chemotherapy and monoclonal antibody therapy, including detecting a mutation in let-7 complementary site LCS6 of human KRAS in a patient sample, wherein the mutation is a SNP comprising a uracil (U) or thymine (T) to guanine (G) transition at position 4 of LCS6, and wherein the presence of the mutation indicates a resistance to the combination. In certain embodiments of this method, the cancer cell is a colorectal cancer (CRC) cell. The cancer cell may be evaluated in vitro or ex vivo. […] The chemotherapy may be a cytotoxic agent. A non-limiting example of the cytotoxic agent is irinotecan.
# [4] = system: KRAS-variant 3′UTR reporter; experiment: Luciferase reporter expression after irinotecan exposure, KRAS-variant 3′UTR reporter
# From the text: as §2
reporter expression following irinotecan exposure [3],reporter expression following irinotecan exposure [4],SMILES,resistance of BG1 compared with CAOV3 [1],resistance of IGROV1 compared with CAOV3 [2]
,,"Nc1ccn([C@@H]2O[C@H](CO)[C@@H](O)C2(F)F)c(=O)n1 [Gemcitabine, gemcitabine]",significantly resistant,
,,N.N.O=C([O-])C1(C(=O)[O-])CCC1.[Pt+2] [carboplatin],statistically significantly resistant,not resistant
,,"COc1cccc2c1C(=O)c1c(O)c3c(c(O)c1C2=O)C[C@@](O)(C(=O)CO)C[C@@H]3O[C@H]1C[C@H](N)[C@H](O)[C@H](C)O1 [Doxorubicin, doxorubicin]",significantly resistant,
no change,statistically-significant increase,CCc1c2c(nc3ccc(OC(=O)N4CCC(N5CCCCC5)CC4)cc13)-c1cc3c(c(=O)n1C2)COC(=O)[C@]3(O)CC [irinotecan],,
,,"CC[C@@]1(O)C(=O)OCc2c1cc1n(c2=O)Cc2cc3c(CN(C)C)c(O)ccc3nc2-1 [Topotecan, topotecan]",significantly resistant,
